Key:
[1] = biological target: human serum albumin (HSA) (Homo sapiens, UniProt P02768); conditions: probe 25 μM, HSA 500 μM, cyclic voltammetry
Text: Cyclic voltammetry was used to measure the concentration of the ferrocene labelled fatty acid probe with and without the presence of HSA allowing percentage bound to be calculated.

[2] = Photolysis of the UV-cleavable ferrocene molecule in solution, followed by TLC; assay type: physicochemical; conditions: UV 365 nm, methanolic/PBS solution, 2.18 mM
Procedure: The cleavage study was followed by Thin Layer Chromatography (TLC) after irradiation for a definite time of a methanolic/PBS solution of the UV-cleavable ferrocene 9 (FIG. 3). • After 2 minutes of irradiation, the appearance of two new products was observed; One of them corresponding to the ferrocene product 8 (on the base line), the other one corresponding probably to the nitroso-derivative 10 just under the front line). • Under the irradiation conditions used, the Uv-cleavable ferrocene molecule was completely cleaved in less than 6 minutes.
To a solution of UV-cleavable ferrocene 9 (0.7 mg, 1.09*10^−6 mol) dissolved in 250 μl of methanol was added 250 μl of PBS. 30 μl of this solution was irradiated using a UV model B100A with a wavelength of 365 nm and an intensity of 8,900 μW/cm^2 at 10″. The UV was applied at approximately 15 cm from the solution.
The cleavage was followed by TLC every two minutes. Eluent used: Ethyl acetate/hexane (80/20) and DCM/MeOH/Et3N (85/10/5).

Chain of human serum albumin (HSA) (P02768 25-609): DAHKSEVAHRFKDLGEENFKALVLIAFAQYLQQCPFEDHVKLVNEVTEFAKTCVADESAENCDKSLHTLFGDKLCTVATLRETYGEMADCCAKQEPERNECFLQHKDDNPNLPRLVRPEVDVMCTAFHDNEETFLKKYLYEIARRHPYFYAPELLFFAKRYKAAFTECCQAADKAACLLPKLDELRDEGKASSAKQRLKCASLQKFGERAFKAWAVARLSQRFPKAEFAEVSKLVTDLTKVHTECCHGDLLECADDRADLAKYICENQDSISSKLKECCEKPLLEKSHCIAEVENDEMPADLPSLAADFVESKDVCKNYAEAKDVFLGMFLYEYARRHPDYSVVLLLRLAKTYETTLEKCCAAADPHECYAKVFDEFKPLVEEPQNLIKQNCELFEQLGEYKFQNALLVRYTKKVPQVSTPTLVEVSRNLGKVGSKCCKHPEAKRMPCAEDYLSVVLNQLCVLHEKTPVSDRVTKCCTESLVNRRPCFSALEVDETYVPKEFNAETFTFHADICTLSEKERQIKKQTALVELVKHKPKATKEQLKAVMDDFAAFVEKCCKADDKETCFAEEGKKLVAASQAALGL

Compound | percentage bound to HSA [1] [%] | irradiation time until completely cleaved [2]
OC[c-]1cccc1.[Fe+2].c1cc[cH-]c1 [ferrocene methanol] | 50 | 
Thioacetic acid S—[3-(1-{2-[2-(2-ferrocenoylamino-ethoxy)-ethoxy]-ethylcarbamoyloxy}-ethyl)-4-nitro-benzyl]ester [UV-cleavable ferrocene molecule 9] |  | less than 6 minutes

From patent US20090035876A1, “Electrochemical Assay” (Inverness Medical Switzerland GMBH, priority 2005, published 2009)
